# According to ChEMBL document CHEMBL3886646, “Cyclohexylamine derivatives having β2 adrenergic agonist and M3 muscarinic antagonist activities” (2016):
# Assays:
# [1] = biological target: Beta-2 adrenergic receptor (Homo sapiens, UniProt P07550); test: Adrenergic Receptor Binding Assay: The study of binding to human adrenergic beta1 and beta2 receptors was performed using commercial membranes prepared from Sf9 cells where they are overexpressed (Perkin Elmer). The membrane suspensions (16 μg/well for beta1 and 5 μg/well for beta2) in assay buffer (75 mM Tris/HCl with 12.5 mM MgCl2 and 2 mM EDTA pH=7.4) were incubated with 0.14 or 0.6 nM of 3H-CGP12177 (Amersham) for beta 1 and beta 2 receptors respectively in a final volume of 250 μl, in GFC Multiscreen 96 well plates (Millipore) previously treated with assay buffer containing 0.3% PEI (Sigma). Non specific binding was measured in the presence of 1 μM propanolol. Incubation was maintained for 60 minutes at room temperature and with gentle shaking. The binding reactions were terminated by filtration and washing with 2.5 volumes of Tris/HCl 50 mM pH=7.4.; assay type: cell membranes
# [2] = biological target: Muscarinic acetylcholine receptor M3 (Homo sapiens, UniProt P20309); test: Muscarinic Receptor Binding Assay: The study of binding to human muscarinic M1, M2, M3, M4 and M5 receptors was performed using commercial membranes (Perkin Elmer) prepared from CHO-K1 cells. Radioligand binding experiments were conducted in 96 polypropylene well plates in a total volume of 200 μl. All reagents were dissolved in assay binding buffer (PBS with calcium and magnesium, SIGMA), except compounds that were dissolved in DMSO 100%. Non-specific binding (NSB) was measured in the presence of 1 μM atropine. [3H]-NMS was used as the radioligand at a concentration of 1 nM for M2, M3 and M5 and 0.3 nM for M1 and M4. [3H]-NMS and antagonists were incubated with membranes that express human muscarinic receptors M1, M2, M3, M4 and M5 at concentrations of 8.1, 10, 4.9, 4.5 and 4.9 μg/well, respectively. After an incubation period of two hours with gentle shaking, 150 μl of the reaction mix were transferred to 96 GF/C filter plates (Millipore), previously treated with wash buffer (Tris 50 mM; NaCl 100 mM; pH: 7.4), containing 0.05% PEI (Sigma) during one hour. Bound and free [3H]-NMS were separated by rapid vacuum filtration in a manifold from Millipore and washed four times with ice cold wash buffer. After drying 30 min, 30 μl of OPTIPHASE Supermix were added to each well and radioactivity quantified using a Microbeta microplate scintillation counter.; assay type: cell-based
# Muscarinic acetylcholine receptor M3, sequence (P20309 whole entry): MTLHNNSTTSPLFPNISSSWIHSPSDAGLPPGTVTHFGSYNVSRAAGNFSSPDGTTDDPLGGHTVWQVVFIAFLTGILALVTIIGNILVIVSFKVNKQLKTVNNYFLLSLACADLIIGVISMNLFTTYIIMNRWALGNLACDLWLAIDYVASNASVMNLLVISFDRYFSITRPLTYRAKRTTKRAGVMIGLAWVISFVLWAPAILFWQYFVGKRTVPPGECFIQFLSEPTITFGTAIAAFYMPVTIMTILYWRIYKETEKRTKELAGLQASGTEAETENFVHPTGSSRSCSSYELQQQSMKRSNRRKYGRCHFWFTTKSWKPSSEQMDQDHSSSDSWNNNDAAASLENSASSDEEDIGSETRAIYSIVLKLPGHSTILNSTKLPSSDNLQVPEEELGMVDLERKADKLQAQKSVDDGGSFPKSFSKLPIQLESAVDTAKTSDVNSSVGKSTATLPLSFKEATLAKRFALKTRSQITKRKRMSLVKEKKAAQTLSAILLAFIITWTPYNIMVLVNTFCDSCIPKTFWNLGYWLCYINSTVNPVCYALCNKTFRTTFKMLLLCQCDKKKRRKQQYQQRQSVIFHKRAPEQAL
# Beta-2 adrenergic receptor, sequence (P07550 whole entry): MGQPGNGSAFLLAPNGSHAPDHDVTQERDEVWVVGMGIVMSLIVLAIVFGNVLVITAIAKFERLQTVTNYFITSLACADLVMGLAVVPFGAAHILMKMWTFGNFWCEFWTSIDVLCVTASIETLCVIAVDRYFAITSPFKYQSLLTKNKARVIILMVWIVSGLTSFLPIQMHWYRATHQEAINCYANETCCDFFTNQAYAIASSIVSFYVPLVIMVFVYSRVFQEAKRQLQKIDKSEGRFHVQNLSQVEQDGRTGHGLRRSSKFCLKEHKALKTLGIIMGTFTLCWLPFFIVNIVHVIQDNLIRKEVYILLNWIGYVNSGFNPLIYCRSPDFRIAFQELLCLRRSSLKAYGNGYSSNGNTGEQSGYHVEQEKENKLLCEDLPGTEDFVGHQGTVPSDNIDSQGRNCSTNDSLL
SMILES,IC50 [1] [nM],IC50 [2] [nM]
CN(CCOc1ccc(CCNC[C@H](O)c2ccc(O)c3[nH]c(=O)ccc23)cc1)C1CCC(OC(=O)C(O)(c2cccs2)c2cccs2)CC1 (stereo partly specified),36,1.3
CN(CCC(=O)Nc1ccc(CNC[C@H](O)c2ccc(O)c3[nH]c(=O)ccc23)cc1Cl)[C@H]1CC[C@H](OC(=O)C(O)(c2cccs2)c2cccs2)CC1,6.7,2.2
COc1cc(NC(=O)CCN(C)[C@H]2CC[C@H](OC(=O)C(O)(c3cccs3)c3cccs3)CC2)c(Cl)cc1CNC[C@H](O)c1ccc(O)c2[nH]c(=O)ccc12,8.5,1.1
